The subject of assay [1] is SH-SY5Y human neuroblastoma cells. In words: CH50 type analysis of inhibition of C3B cleavage, LDH release end point. The format is cell-based. The conditions noted are these: SH-SY5Y cells with undiluted human serum, 37° C. for 3 h, read-out: concentration to inhibit cell lysis by 50% (IC 50). The procedure: To investigate efficacy of DAS, ATA, AQA and AHA and to inhibit C3B cleavage in SH-SY5Y human neuroblastoma cells, a CH50 type analysis was performed. Lactate dehydrogenase (LDH) release from dead cells was the end point. Reaction mixtures were: SH-SY5Y cells (10^5 cells in 1 ml DMEM/F-12 medium), 250 μL of undiluted human serum and 250 μL of DAS (3 μM), ATA (5 μM), AQA (5 μM), or AHA (5 μM). Mixtures were incubated at 37° C. for 3 h. 100 μl of cell free reaction mixtures were transferred to 96 well plates where they were mixed with a solution containing 15 μl lactate (36 mg/ml in PBS) plus 15 μl p-iodonitrotetrazolium violet (INT, 2 mg/ml in PBS). The enzymatic reaction was started by the addition of 15 μl of NAD^+/diaphorase solution (3 mg/ml NAD^+; 2.3 mg solid/ml diaphorase). After 1 h, optical densities were measured with a Model 450 microplate reader (Bio-Rad Laboratories, Richmond, Calif.) using a 490-nm filter. The amount of LDH released was expressed as a percentage of the value obtained in comparative wells where cells were 100% lysed by 0.1% Triton X-100.
Cell lysis was concentration dependent for each of the components investigated.
Background: LDH leaks from cells whose membrane has failed.

Assay [2] relates to C5a formation (C5 convertase). In words: Blockade of C5a formation, western blotting. The format is cell-based. As to conditions: SH-SY5Y cells, 10% human serum, zymosan 100 μg/ml, C1 inhibitor 5 μg/ml, 37° C. 1 h. How it is done: To verify that each of the inhibitors was acting by inhibiting formation of C5 convertase, western blotting experiments were carried out. Results are shown in illustrated in FIG. 4. SH-SY5Y human neuroblastoma cells (2×10^5 cells in 1 ml DMEM/F-12 medium including 10% human serum) were incubated with zymosan (100 μg/ml) in 24 well plates at 37° C. for 1 h with or without DAS (3 μM), ATA (5 μM), AQA (5 μM), or AHA (5 μM). To inhibit any classical pathway activation, C1 inhibitor (5 μg/ml) was added. Supernatants were obtained by centrifugation at 4000 g for 30 min through 30 K-filters (Amicon® Ultra-15, 30,000 NMWL, Millipore, Billerica, Mass.). The filtrates were dried and added to the loading buffer for SDS-PAGE (50-mM Tris (pH 6.8), 0.1% SDS, 0.1% bromophenol blue, and 10% glycerol). Proteins were separated in 10% polyacrylamide gels at 70V for 6 h. The proteins were then transferred to polyvinylidene difluoride (PVDF) membranes (Bio-Rad, CA) at 30 mA for 2 hours. After washing with PBS-T, the membranes were treated with a mouse monoclonal C5/C5a antibody (Abcam, Cambridge Mass., 1/2000) for 15 hours at 4° C. The membranes were then treated with an appropriate HRP-conjugated anti-mouse IgG (A3682, 1/3,000; Sigma) for 3 hours at room temperature. The bands were visualized with an enhanced chemiluminescent system and exposure to photographic film (Hyperfilm ECL; Amersham Pharmacia Biotech, Little Chalfont, UK).

For the molecule `O=C(O)C1=CC(=C(c2ccc(O)c(C(=O)O)c2)c2ccc(O)c(C(=O)O)c2)C=CC1=O` [ATA, aurin tricarboxylic acid], the IC50 in assay [1] was determined as 550 nM. For aurin hexacarboxylic acid [AHA], the IC50 in assay [1] was determined as 534 nM. In addition, in assay [2] (5 μM), the “C5a formation (western blot)” value is recorded as “C5a was no longer formed”. Turning to aurin quadracarboxylic acid [AQA], the IC50 in assay [1] is 522 nM. For the same molecule, the “C5a formation (western blot)” value in assay [2] (5 μM) is given as “C5a was no longer formed”.

With `CC(=O)Oc1ccc(Cc2ccc(OC(C)=O)c(C(=O)O)c2)cc1C(=O)O` [DAS, 5,5′-methylenebis(2-acetoxybenzoic) acid], the IC50 in assay [1] is 109 nM. Further, the “C5a formation (western blot)” value in assay [2] (3 μM) is reported as “C5a was no longer formed”.

Source of the values: patent publication US11013750B2, “Methods for treating and preventing nociceptive pain” (Aurin Biotech Inc., priority 2017, dated 2021).
